Test systems include SN12C; DU-145; NCI-H23; PC-3; MCF7; U-251; A498; NCI-H460; IGROV-1; CAKI-1; HL-60; MDA-N; ACHN; NCI/ADR-RES; UACC-257; OVCAR-3; OVCAR-8; SK-OV-3; Malme-3M; MDA-MB-231.
Assay in all cases: NCI anticancer screen, dose series, 48 h

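How tested: cells in 96-well plates exposed to compound for 48 hours at five concentrations. GI50 marks 50% less growth.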 Calls of active or inactive are those of the source. No stated cut-off is given here; in the data, active = GI50 up to about 1.1 µM and inactive = higher.

Consider 11 molecules from ChEMBL document CHEMBL1201862, “PubChem BioAssay data set” (2004).

For the molecule `c1ccc2/c3[nH]/c(c2c1)=N\c1ccc(cc1)-c1nc2cc(ccc2o1)/N=c1/[nH]/c(c2ccccc12)=N/c1ccc2nc(oc2c1)-c1ccc(cc1)\N=3`, the GI50 in the assay with SN12C, in the assay with DU-145, in the assay with NCI-H23, with PC-3, in the assay on MCF7 and with U-251 was > 100 µM (inactive) throughout. The GI50 with A498 was > 100 µM (inactive); in the assay on NCI-H460 it was 51.8 µM (inactive); in the assay on IGROV-1, > 100 µM (inactive); with CAKI-1, > 100 µM (inactive); in the assay on HL-60, > 100 µM (inactive); with MDA-N it was > 100 µM (inactive). Also, the GI50 is > 100 µM (inactive) in the assay on ACHN, 32.1 µM (inactive) in the assay on NCI/ADR-RES and > 100 µM (inactive) with UACC-257.

Turning to `CC(=O)O[C@H]1C(=O)[C@@]2(C)[C@H]([C@H](OC(=O)c3ccccc3)[C@]3(O)C[C@H](OC(=O)[C@H](O)[C@@H](NC(=O)c4ccccc4)C4CCCCC4)C(C)=C1C3(C)C)[C@]1(OC(C)=O)CO[C@@H]1C[C@@H]2O`, the GI50 is < 0.01 µM (active) in the assay on NCI-H23; < 0.01 µM (active) with OVCAR-3; < 0.01 µM (active) in the assay with OVCAR-8; 0.0468 µM (active) in the assay with PC-3; < 0.01 µM (active) in the assay with MCF7; < 0.01 µM (active) in the assay on U-251. Further, the GI50 was < 0.01 µM (active) in the assay on NCI-H460; < 0.01 µM (active) in the assay with SK-OV-3; < 0.01 µM (active) with IGROV-1; 0.409 µM (active) in the assay on CAKI-1; 23.6 µM (inactive) in the assay on Malme-3M; < 0.01 µM (active) with HL-60. Moreover, the GI50 was < 0.01 µM (active) in the assay with MDA-N, 0.288 µM (active) in the assay on ACHN, < 0.01 µM (active) with MDA-MB-231 and 2.96 µM (inactive) in the assay on NCI/ADR-RES.

Regarding `CCOC(=O)Cn1nnc2ccc(Nc3nc4ccccc4nc3C(=O)OCC)cc21`, the GI50 in the assay on SN12C is > 100 µM (inactive); in the assay with DU-145, 74.1 µM (inactive); in the assay on NCI-H23, 45.9 µM (inactive); in the assay with OVCAR-3 it was > 100 µM (inactive); in the assay on OVCAR-8, > 100 µM (inactive); in the assay with PC-3, > 100 µM (inactive). Moreover, the GI50 with MCF7 is > 100 µM (inactive); in the assay on U-251, 74 µM (inactive); in the assay on A498, > 100 µM (inactive); in the assay with NCI-H460, > 100 µM (inactive); in the assay on SK-OV-3, 59 µM (inactive); with IGROV-1 it was > 100 µM (inactive). The GI50 in the assay with CAKI-1, with Malme-3M, in the assay on HL-60, with MDA-N, in the assay on ACHN and with NCI/ADR-RES was > 100 µM (inactive) in each case. The GI50 in the assay with UACC-257 is > 100 µM (inactive).

`CCOc1ccc(/C=C2/C(=O)N/C(=N\C(C)=O)N2C)cc1`: the GI50 was > 100 µM (inactive) with SN12C; > 100 µM (inactive) in the assay on DU-145; > 100 µM (inactive) in the assay with NCI-H23; > 100 µM (inactive) in the assay on OVCAR-3; > 100 µM (inactive) in the assay on OVCAR-8; 62.8 µM (inactive) in the assay with MCF7. The GI50 in the assay with U-251 is > 100 µM (inactive); in the assay on A498, > 100 µM (inactive); with NCI-H460, 67.5 µM (inactive); in the assay with SK-OV-3 it was > 100 µM (inactive); in the assay on IGROV-1, > 100 µM (inactive); with CAKI-1 it was > 100 µM (inactive). The GI50 was 17.9 µM (inactive) in the assay on HL-60; > 100 µM (inactive) in the assay on MDA-N; > 100 µM (inactive) in the assay on ACHN; > 100 µM (inactive) in the assay on MDA-MB-231; > 100 µM (inactive) in the assay on NCI/ADR-RES; > 100 µM (inactive) in the assay with UACC-257.

On to `COc1ccc(C2c3cc4c(cc3OC(NNS(=O)(=O)c3ccc(C)cc3)C2C)OCO4)cc1` (stereo not given), for which the GI50 in the assay on SN12C was > 100 µM (inactive); with DU-145, > 100 µM (inactive); in the assay on NCI-H23, 99.8 µM (inactive); in the assay with OVCAR-3, 80.7 µM (inactive); with OVCAR-8, > 100 µM (inactive); in the assay on PC-3, 21 µM (inactive). Moreover, the GI50 in the assay with MCF7 is 41.1 µM (inactive); with U-251, 83.4 µM (inactive); in the assay with A498, 78.5 µM (inactive); in the assay on NCI-H460 it was 41 µM (inactive); with SK-OV-3, > 100 µM (inactive); with IGROV-1, 57.1 µM (inactive). Besides, the GI50 is 65.9 µM (inactive) with CAKI-1; > 100 µM (inactive) in the assay on Malme-3M; 21.6 µM (inactive) in the assay with HL-60; 58.3 µM (inactive) in the assay on MDA-N; 74 µM (inactive) in the assay with ACHN; > 100 µM (inactive) in the assay on MDA-MB-231. For the same molecule, the GI50 in the assay with UACC-257 was 52.6 µM (inactive).

For `COc1ccc2c(c1)CC[C@@H]1C2CC[C@]2(C)C(=O)N(CCN(C)C)C(=O)CC12` (stereo not given in full), the GI50 with SN12C, in the assay on DU-145, in the assay with NCI-H23, in the assay on OVCAR-3, in the assay with OVCAR-8 and with PC-3 was > 100 µM (inactive) each time. For the same molecule, the GI50 in the assay with MCF7, in the assay with U-251, in the assay on A498, with NCI-H460, in the assay on SK-OV-3 and in the assay with IGROV-1 was > 100 µM (inactive) each time. Also, the GI50 in the assay with CAKI-1, with Malme-3M, with HL-60, with MDA-N, with ACHN and in the assay on MDA-MB-231 was > 100 µM (inactive) in each case. For the same molecule, the GI50 in the assay on UACC-257 was > 100 µM (inactive).

As for `Cc1ccc(C)n2c1nc1cc3ccccc3cc12`, the GI50 was 43 µM (inactive) in the assay on SN12C; 51.9 µM (inactive) in the assay on DU-145; 25.2 µM (inactive) in the assay on NCI-H23; 25.1 µM (inactive) with OVCAR-3; 44.4 µM (inactive) in the assay on OVCAR-8; 32.4 µM (inactive) in the assay with PC-3. The GI50 is 1.14 µM (inactive) in the assay on MCF7; 30.4 µM (inactive) in the assay with U-251; 32.4 µM (inactive) with SK-OV-3; 23.1 µM (inactive) with IGROV-1; 50.1 µM (inactive) with Malme-3M; 53.8 µM (inactive) in the assay with HL-60. The GI50 in the assay with MDA-N was 38.6 µM (inactive); in the assay on ACHN it was 29.6 µM (inactive); in the assay with NCI/ADR-RES it was 49.4 µM (inactive); in the assay with UACC-257 it was 49.2 µM (inactive).

Turning to `COC(C/C(=C/CO[Si](C(C)C)(C(C)C)C(C)C)C(=O)N(COCC[Si](C)(C)C)c1ccccc1I)OC`, the GI50 is 71 µM (inactive) with SN12C; > 100 µM (inactive) in the assay on DU-145; 17.3 µM (inactive) in the assay with NCI-H23; 17.8 µM (inactive) in the assay with OVCAR-3; 89.5 µM (inactive) in the assay on OVCAR-8; 28.4 µM (inactive) with PC-3. Further, the GI50 with U-251 is 22.8 µM (inactive); with A498, > 100 µM (inactive); with NCI-H460 it was 33.4 µM (inactive); in the assay on SK-OV-3 it was > 100 µM (inactive); in the assay on IGROV-1, 0.0247 µM (active); with CAKI-1, > 100 µM (inactive). Further, the GI50 with MDA-N was 37.4 µM (inactive); in the assay on ACHN, 20.6 µM (inactive); in the assay with MDA-MB-231, > 100 µM (inactive); in the assay with NCI/ADR-RES it was > 100 µM (inactive); in the assay with UACC-257 it was 20 µM (inactive).

For `N#CCCC1(CCC#N)CCCCCCCCC(CCC#N)(CCC#N)C(=O)C1=O`, the GI50 in the assay with SN12C, with DU-145, in the assay with NCI-H23, in the assay with OVCAR-3, in the assay with OVCAR-8 and in the assay with PC-3 was > 100 µM (inactive) each time. In addition, the GI50 in the assay on MCF7, with U-251, in the assay with NCI-H460, in the assay with SK-OV-3, in the assay on CAKI-1 and in the assay on Malme-3M was > 100 µM (inactive) each time. Besides, the GI50 was > 100 µM (inactive) with HL-60; > 100 µM (inactive) in the assay with MDA-N; > 100 µM (inactive) with ACHN; > 100 µM (inactive) with NCI/ADR-RES; 55.6 µM (inactive) with UACC-257.

For `N#Cc1c(N2CCCC2)ncn(Cc2ccccc2)c1=O`, the GI50 with SN12C, in the assay with DU-145, in the assay with OVCAR-3, with OVCAR-8, in the assay on PC-3 and in the assay with U-251 was > 100 µM (inactive) in each case. Further, the GI50 with A498, with NCI-H460, in the assay on SK-OV-3, in the assay with IGROV-1, with Malme-3M and with HL-60 was > 100 µM (inactive) in each case. The GI50 in the assay on MDA-N, in the assay with ACHN, with NCI/ADR-RES and in the assay on UACC-257 was > 100 µM (inactive) each time.

In the case of `O=C(O)c1ccccc1/C=C1\Cc2cc3c(cc2C1=O)CCC3`, the GI50 with SN12C is 20.4 µM (inactive); in the assay with DU-145, 25.3 µM (inactive); with NCI-H23 it was 18.1 µM (inactive); in the assay on OVCAR-3 it was 31.2 µM (inactive); in the assay on OVCAR-8 it was 26.3 µM (inactive); in the assay with MCF7, 20.7 µM (inactive). The GI50 is 30.1 µM (inactive) in the assay on U-251; 30.8 µM (inactive) with A498; 24.2 µM (inactive) with NCI-H460; 36.2 µM (inactive) with SK-OV-3; 23.6 µM (inactive) in the assay on IGROV-1; 26.9 µM (inactive) in the assay on Malme-3M. Also, the GI50 in the assay on HL-60 was 6.59 µM (inactive); in the assay on MDA-N, 11.9 µM (inactive); with ACHN, 34.4 µM (inactive); with MDA-MB-231, 20.3 µM (inactive); in the assay on NCI/ADR-RES it was 17.3 µM (inactive); in the assay with UACC-257, 26.5 µM (inactive).
